According to patent publication US8003658B2, “Quinazoline derivatives for inhibiting cancer cell growth and method for the preparation thereof” (Hanmi Holdings Co., Ltd., priority 2004, dated 2011):
Where two headings read alike, the source gives them in different places.

Assays:
A431 (ATCC: CRL-1555) = test: Test of cancer cell growth inhibition (SRB), A431; details: read-out: IC50 A431
SK-Br3 (ATCC: HTB-30) = test: Test of cancer cell growth inhibition (SRB), SK-Br3; details: read-out: IC50 SK-Br-3
[1] = EGFR overexpressed A431, 72 hours, SRB
[2] = Erb-B2 overexpressed SK-Br3, 72 hours, SRB

| Compound | IC50 (A431 (ATCC: CRL-1555); Homo sapiens, A-431, 72 h) [µM] | IC50 (SK-Br3 (ATCC: HTB-30); Homo sapiens, SK-BR-3, 72 h) [µM] | IC50 (A431 (ATCC: CRL-1555); [1]) [µM] | IC50 (SK-Br3 (ATCC: HTB-30); [2]) [µM] |
| --- | --- | --- | --- | --- |
| CSCC(=O)NCCCC(=O)Nc1ccc2ncnc(Nc3ccc(OCc4cccc(F)c4)c(Cl)c3)c2c1 [Example 137, N-{4-[3-chloro-4-(3-fluoro-benzyloxy)phenylamino]-quinazolin-6-yl}-4-(2-methanesulfanyl-acetylamino)-butyramide] | – | – | 0.1 | 0.044 |
| O=C(C=CCN1CCOCC1)NCCC(=O)Nc1ccc2ncnc(Nc3ccc(OCc4cccc(F)c4)c(Cl)c3)c2c1 [Example 57, 4-morpholin-4-yl-but-2-enonylic acid (2-{4-[3-chloro-4-(3-fluoro-benzyloxy)-phenylamino]-quinazolin-6-ylcarbamoyl}-ethyl)-amide] | – | – | 0.625 | 0.043 |
| O=C(CCNC(=O)c1cn[nH]c1)Nc1ccc2ncnc(Nc3ccc(OCc4cccc(F)c4)c(Cl)c3)c2c1 [Example 34, 1H-pyrazol-4-carboxylic acid (2-{4-[3-chloro-4-(3-fluoro-benzyloxy)-phenylamino]-quinazolin-6-ylcarbamoyl}-ethyl)-amide] | 0.896 | 0.141 | – | – |
| O=C(CCNC(=O)OCc1ccccc1)Nc1ccc2ncnc(Nc3ccc(OCc4cccc(F)c4)c(Cl)c3)c2c1 [Example 128, (2-{4-[3-chloro-4-(3-fluoro-benzyloxy)-phenylamino]-quinazolin-6-ylcarbamoyl}-ethyl)-carbamic acid benzylester] | 0.489 | 0.585 | – | – |
| CS(=O)(=O)CC(=O)NCCCC(=O)Nc1ccc2ncnc(Nc3ccc(OCc4cccc(F)c4)c(Cl)c3)c2c1 [Example 88, N-{4-[3-chloro-4-(3-fluoro-benzyloxy)-phenylamino]-quinazolin-6-yl}-4-(2-methanesulfonyl-acetylamino)-butyramide] | 0.732 | 0.062 | – | – |
| CS(=O)(=O)CC(=O)NCCC(=O)Nc1ccc2ncnc(Nc3ccc(F)c(Cl)c3)c2c1 [Example 53-2, N-[4-(3-chloro-4-fluoro-phenylamino)-quinazolin-6-yl]-3-(2-methanesulfonyl-acetylamino)-propionamide] | 0.124 | 0.258 | – | – |
| C=CC(=O)N1CCC[C@H]1C(=O)Nc1ccc2ncnc(Nc3ccc(Oc4ccc(C)nc4)c(C)c3)c2c1 [Example 157, (2S)-1-acryloyl-pyrrolidine-2-carboxylic acid {4-[3-methyl-4-(6-methyl-pyridin-3-yloxy)-phenylamino]-quinazolin-6-yl}-amide] | 5.59 | 0.123 | – | – |
| (2S)-2-acryloylamino-N-{4-[3-chloro-4-(3-fluoro-benzyloxy)-phenylamino]-7-methoxy-quinazolin-6-yl}-4-methanesulfinyl-butyramide [Example 223] | – | – | 0.054 | 0.032 |
| CN(C)CC=CC(=O)NCCC(=O)Nc1ccc2ncnc(Nc3ccc(OCc4cccc(F)c4)c(Cl)c3)c2c1 [Example 56, 4-dimethylamino-but-2-enonylic acid (2-{4-[3-chloro-4-(3-fluoro-benzyloxy)-phenylamino]-quinazolin-6-ylcarbamoyl}-ethyl)-amide] | – | – | 0.613 | 0.051 |
| CCOC(=O)C(=O)NCCCC(=O)Nc1ccc2ncnc(Nc3ccc(OCc4cccc(F)c4)c(Cl)c3)c2c1 [Example 91, N-(3-{4-[3-chloro-4-(3-fluoro-benzyloxy)-phenylamino]-quinazolin-6-ylcarbamoyl}-propyl)-oxalamic acid ethylester] | 0.603 | 0.445 | – | – |
| C=CC(=O)N1CCC[C@H]1C(=O)Nc1ccc2ncnc(Nc3ccc(F)c(Cl)c3)c2c1 [Example 159, (2S)-1-acryloyl-pyrrolidine-2-carboxylic acid [4-(3-chloro-4-fluoro-phenylamino)-quinazolin-6-yl]-amide] | 0.462 | 0.223 | – | – |
| O=C(CCNC(=O)C1CC1)Nc1ccc2ncnc(Nc3ccc(OCc4cccc(F)c4)c(Cl)c3)c2c1 [Example 37, cyclopropylcarboxylic acid (2-{4-[3-chloro-4-(3-fluoro-benzyloxy)-phenylamino]-quinazolin-6-ylcarbamoyl}-ethyl)-amide] | 0.137 | 0.16 | – | – |
| COCC(=O)NCCC(=O)Nc1ccc2ncnc(Nc3ccc(OCc4ccccn4)c(Cl)c3)c2c1 [Example 129-2, N-{4-[3-chloro-4-(pyridin-2-ylmethoxy)-phenylamino]-quinazolin-6-yl}-3-(2-methoxy-acetylamino)-propionamide] | 0.49 | 0.345 | – | – |
| CS(=O)(=O)CC(=O)N1CCCC1C(=O)Nc1ccc2ncnc(Nc3ccc(OCc4cccc(F)c4)c(Cl)c3)c2c1 (centres unmarked) [Example 17, 1-(2-methanesulfonyl-acetyl)-pyrrolidine-2-carboxylic acid {4-[3-chloro-4-(3-fluoro-benzyloxy)-phenylamino]-quinazolin-6-yl}-amide] | 0.713 | 0.182 | – | – |
| O=C(CCCNC(=O)c1ccccc1)Nc1ccc2ncnc(Nc3ccc(OCc4cccc(F)c4)c(Cl)c3)c2c1 [Example 90, N-(3-{4-[3-chloro-4-(3-fluoro-benzyloxy)-phenylamino]-quinazolin-6-ylcarbamoyl}-propyl)-benzamide] | 0.423 | 0.628 | – | – |

Other lines, results leading:

| IC50 (A431 (ATCC: CRL-1555); Homo sapiens, A-431, 72 h) [µM] | IC50 (SK-Br3 (ATCC: HTB-30); Homo sapiens, SK-BR-3, 72 h) [µM] | IC50 (A431 (ATCC: CRL-1555); [1]) [µM] | IC50 (SK-Br3 (ATCC: HTB-30); [2]) [µM] | Compound |
| --- | --- | --- | --- | --- |
| 0.085 | 0.03 | – | – | C=CC(=O)N1CCC[C@H]1C(=O)Nc1cc2c(Nc3ccc(OCc4cccnc4)c(Cl)c3)ncnc2cc1OC [Example 204, (2S)-1-acryloyl-pyrrolidine-2-carboxylic acid {4-[3-chloro-4-(pyridin-3-ylmethoxy)-phenylamino]-7-methoxy-quinazolin-6-yl}-amide] |
| 0.119 | 0.044 | – | – | C=CC(=O)N1CCC1C(=O)Nc1cc2c(Nc3ccc(OCc4ccccn4)c(Cl)c3)ncnc2cc1F (centres unmarked) [Example 195, 1-acryloyl-azetidine-2-carboxylic acid {4-[3-chloro-4-(pyridin-2-ylmethoxy)-phenylamino]-7-fluoro-quinazolin-6-yl}-amide] |
| 0.394 | 0.029 | – | – | C=CC(=O)N1CCC[C@H]1C(=O)Nc1ccc2ncnc(Nc3ccc(OCc4ccncc4)c(Cl)c3)c2c1 [Example 153, (2S)-1-acryloyl-pyrrolidine-2-carboxylic acid {4-[3-chloro-4-(pyridin-4-ylmethoxy)-phenylamino]-quinazolin-6-yl}-amide] |
| – | 0.019 | 0.513 | – | C=CC(=O)N1CCC(C(=O)Nc2ccc3ncnc(Nc4ccc(OCc5ccccn5)c(Cl)c4)c3c2)CC1 [Example 156, 1-acryloyl-piperidine-4-carboxylic acid {4-[3-chloro-4-(pyridin-2-ylmethoxy)-phenylamino]-quinazolin-6-yl}-amide] |
| 0.034 | 0.004 | – | – | C=CC(=O)N1CCC[C@H]1C(=O)Nc1cc2c(Nc3ccc(OCc4ccccn4)c(Cl)c3)ncnc2cc1OCCOC [Example 213, (2S)-1-acryloyl-pyrrolidine-2-carboxylic acid {4-[3-chloro-4-(pyridin-2-ylmethoxy)-phenylamino]-7-(2-methoxyethoxy)-quinazolin-6-yl}-amide] |
| 0.036 | 0.006 | – | – | C=CC(=O)N1C[C@H](SCC)C[C@H]1C(=O)Nc1ccc2ncnc(Nc3ccc(OCc4ccccn4)c(Cl)c3)c2c1 [Example 150, (2S,4R)-1-acryloyl-4-ethylsulfanyl-pyrrolidine-2-carboxylic acid {4-[3-chloro-4-(pyridin-2-ylmethoxy)-phenylamino]-quinazolin-6-yl}-amide] |
| 0.017 | 0.01 | – | – | C=CC(=O)NCC(F)C(=O)Nc1cc2c(Nc3ccc(OCc4ccccn4)c(Cl)c3)ncnc2cc1OC (centres unmarked) [Example 206, N-(2-{4-[3-chloro-4-(pyridin-2-ylmethoxy)-phenylamino]-7-methoxy-quinazolin-6-ylcarbamoyl}-2-fluoro-ethyl)-acrylamide] |
| 0.105 | 0.006 | – | – | C=CC(=O)N(CC)[C@@H](C)C(=O)Nc1cc2c(Nc3ccc(OCc4ccccn4)c(Cl)c3)ncnc2cc1OC [Example 202, N-((1S)-1-{4-[3-chloro-4-(pyridin-2-ylmethoxy)-phenylamino]-7-methoxy-quinazolin-6-ylcarbamoyl}-ethyl)-N-ethyl-acrylamide] |
| 0.193 | 0.004 | – | – | C=CC(=O)NCCC(=O)Nc1ccc2ncnc(Nc3ccc(OCc4cccnc4)c(Cl)c3)c2c1 [Example 134, N-(2-{4-[3-chloro-4-(pyridin-3-ylmethoxy)-phenylamino]-quinazolin-6-ylcarbamoyl}-ethyl)-acrylamide] |
| 0.306 | 0.031 | – | – | C=CC(=O)N1CCC[C@H]1C(=O)Nc1cc2c(Nc3ccc(OCc4ccccn4)c(Cl)c3)ncnc2cc1SCC [Example 171, (2S)-1-acryloyl-pyrrolidine-2-carboxylic acid {4-[3-chloro-4-(pyridin-2-ylmethoxy)-phenylamino]-7-ethylsulfanyl-quinazolin-6-yl}-amide] |
| 0.215 | 0.005 | – | – | C=CC(=O)N1CCC[C@H]1C(=O)Nc1cc2c(Nc3ccc(OCc4ccccn4)c(Cl)c3)ncnc2cc1F [Example 165, (2S)-1-acryloyl-pyrrolidine-2-carboxylic acid {4-[3-chloro-4-(pyridin-2-ylmethoxy)-phenylamino]-7-fluoro-quinazolin-6-yl}-amide] |
| – | 0.06 | 1.4 | – | C=CC(=O)N1CC(C(=O)Nc2ccc3ncnc(Nc4ccc(OCc5ccccn5)c(Cl)c4)c3c2)C1 [Example 163, 1-acryloyl-azetidine-3-carboxylic acid {4-[3-chloro-4-(pyridin-2-ylmethoxy)-phenylamino]-quinazolin-6-yl}-amide] |
| 0.026 | 0.008 | – | – | C=CC(=O)N1CCC[C@H]1C(=O)Nc1cc2c(Nc3ccc(OCc4ccccn4)c(C)c3)ncnc2cc1OCC [Example 186, (2S)-1-acryloyl-pyrrolidine-2-carboxylic acid {4-[3-methyl-4-(pyridin-2-ylmethoxy)-phenylamino]-7-ethoxy-quinazolin-6-yl}-amide] |
